Data on one molecule can be found in patent US20240043699A1, “DISPERSION AND COATINGS DERIVED THEREFROM” (UNIVERSITY OF MASSACHUSETTS, priority 2022, published 2024).

The nature of the series: Krafft Temperature from electrical conductivity in water at various temperatures. The class given is physicochemical. Particulars: electrical conductivity vs. temperature, sulfate. Here is the method:
In some embodiments, the surfactants useful for the present disclosure can have a high Krafft temperature. For example, exemplary surfactants can have a Krafft temperature of at least 50° C. […] Krafft temperature can be determined by, for example, measuring electrical conductivity in water at various temperatures, where the Krafft temperature is taken to be the inflection point when conductivity is plotted against temperature.
Krafft Temperature, the temperature at which an ionic surfactant begins to form micelles in water, is marked by a significant increase in solubility and therefore electrical conductivity for ionic surfactants. Electrical conductivities of the HMW Surfactant species were measured in water at various temperatures to determine Krafft Temperature.

Take `CCCCCCCCCCCCOS(=O)(=O)[O-].[Na+]` [sodium dodecyl sulfate]: the “Krafft Temperature” value was “roughly 15 °C”. Under “listed as SDS”, the “Krafft Temperature” value came out at 15 °C.
